From patent publication US11246818B2, “Peptides and compositions for use in cosmetics” (LIPOTRUE, S.L., priority 2017, dated 2022)
Residues, ends and D or L forms follow the SMILES beside them.

How the values were obtained:
[1] = system: Primary human epidermal keratinocytes; assay: Protection against oxidative stress (reactive oxygen species) induced by hydrogen peroxide; assay type: cell-based; details: all concentrations tested
Procedure: Columns from left to right in the x-axis of FIG. 4(A) correspond to: basal state (cells to which no treatment is applied), positive control, negative control of oxidation (sample treated with 1 mM ascorbic acid) and treatments with Ac-SEQ ID NO: 1-NH2 concentrations of 0.001 mg/ml, 0.005 mg/ml and 0.01 mg/ml, respectively. […] Columns from left to right in the x-axis of FIG. 3(B) correspond to: basal state (cells to which no treatment is applied), positive control, negative control (sample treated with 1 mM ascorbic acid) and treatments with Ac-SEQ ID NO: 2-NH2 concentrations of 0.001 mg/ml, 0.005 mg/ml, 0.01 mg/ml and 0.05 mg/ml, respectively.
Primary human epidermal keratinocytes were seeded in black 96 well-plates in the corresponding culture medium and, 48 hours later, treated with the different compounds analysed (Ac-SEQ ID NO: 1-NH2 or Ac-SEQ ID NO: 2-NH2) for 3 hours at 37° C. or with ascorbic acid as an antioxidant control. After incubation, cells were loaded with a fluorescence probe for 45 minutes and then H2O2 was added for 30 minutes.
Finally, fluorescence was determined at Excitation 485 nm/Emission 520 nm.

[2] = system: Primary human epidermal melanocytes; assay: Brightening activity: intracellular melanin content; assay type: cell-based; details: 7 days, kojic acid 10 and 50 μM
Procedure: Two concentrations of kojic acid were used as positive control.
Kojic acid was used as positive control.
Primary human epidermal melanocytes were incubated in 6-well plates for 4 days and then treated with the compounds to be analysed (Ac-SEQ ID NO: 1-NH2, Ac-SEQ ID NO: 2-NH2, Ac-SEQ ID NO: 3-NH2 or Ferulic acid-SEQ ID NO: 2-NH2) for 7 days. After treatment, cells were homogenized an intracellular melanin content was quantified by absorbance at 450 nm by Multiskan FC (Thermo Fisher Scientific, MA, USA).

SMILES: CC(=O)N[C@@H](CC(=O)O)C(=O)N[C@@H](Cc1ccc(O)cc1)C(=O)N[C@@H](CCCCN)C(=O)N[C@H](C(N)=O)C(C)C [Ac-SEQ ID NO: 1-NH2, Ac-Asp-Tyr-Lys-Val-NH2] (Ac-DYKV-NH2)
- activity against hydrogen peroxide induced reactive oxygen species compared with Ac-SEQ ID NO: 2-NH2 [1]: increased activity in all concentrations tested
- brightening or whitening activity compared with kojic acid ([2]; all the concentrations tested (0.01, 0.05, 0.1 mg/ml)): significantly higher brightening or whitening activity
- increased brightening activity relative to the activity of the two concentrations of kojic acid ([2]; all the concentrations tested): two to more than four times
